Experiments:
full-length human PDE4D5 = target: T1, full-length human PDE4D5 (Homo sapiens, UniProt Q08499); assay: PDE4 radio-assay, PDE4D5 long form activation (Experiment 1); assay type: biochemical; details: n ≥ 2, read-out: PDE4D5 activity (mean % increase in counts over basal activity without added compound); for activation at 1 µM: 1 μM compound; for activation at 3 µM: 3 μM compound; for activation at 10 µM: 10 μM compound; for activation at 30 µM: 30 μM compound; for activation at 50 µM: 50 μM compound
T1 construct: stably expressed the full-length human PDE4D5, PDE4A4 and PDE4B1 long isoforms; made in house; cytosol fraction of the lysate
Method: (§1) One suitable method of detecting whether or not a compound is capable of serving as an activator of a PDE4 long form is using a two-step radio-assay procedure described in Experiment 1. In summary, the method involves incubating a PDE4 long form with a test small molecule activator, together with [^3H]-labelled cAMP to assess alterations in the breakdown of cAMP to the 5′-adenosine monophosphate (5′-AMP) product. A sample of the reaction mixture from such an incubation is subsequently treated with snake venom 5′-nucleotidase to allow conversion of the nucleotide [^3H]-labelled 5′-AMP to the uncharged nucleoside [^3H]-labelled adenosine, which can be separated and quantified to assess PDE4 activity and the effect of the test compound (Thompson, W. J. and Appleman, M. M. Biochemistry 10: 311-316, 1971, with some modifications as described in: Marchmont, R. J. and Houslay, M. D. Biochem J. 187: 381-92, 1980).
(§2) HEK 293 cells were transfected with pDEST™ PDE4 expression vectors using Lipofectamine LTX/Plus reagent (Invitrogen) as outlined by the manufacturer and clonal isolates expanded to obtain cell lines that stably expressed the full-length human PDE4D5, PDE4A4 and PDE4B1 long isoforms and the full length human PDE4B2 short isoform. These were called the HEK-PDE4D5, HEK-PDE4A4, HEK-PDE4B1 and HEK-PDE4B2 cell lines, respectively.
(§3) HEK-PDE4D5 cells were seeded out in 100 mm plates and incubated at 37° C. in an atmosphere of 5% CO2, 95% air. Cell lysates were prepared using KHEM buffer [50 mM KCl, 10 mM EGTA, 50 mM HEPES (pH 7.2), 1.92 mM MgCl2].
(§4) To prepare the cell lysates, the 100 mm plates containing the cells were placed on ice and washed with ice-cold PBS (phosphate buffered saline, pH 7.4). KHEM buffer (500 μl) was added to the cells. Cells were then scraped off the plate and triturated using a needle (BD Microlance™ 0.8, 40 mm). The lysed cells were then centrifuged at 2000 rpm for 10 minutes to remove cell debris and the supernatant (cell lysate containing recombinant PDE4D5) was transferred to a fresh tube and kept on ice.
(§5) The cell lysate containing recombinant PDE4D5 was transferred into a centrifuge tube and placed into an ultracentrifuge (BECKMAN COULTER) and spun at high speed (100,000 g) for 30 minutes at 4° C. The cytosol fraction was then collected and its protein amount determined using a BCA protein assay.
PDE assays were performed using a final concentration of 10 mM Tris/5 mM MgCl2 and 1 μM [3H]-cAMP (Perkin Elmer) plus PDE4D5 cell lysate cytosol fraction, containing over-expressed PDE4D5, with and without test compound. Incubations were performed at 30° C. for 5 minutes. The samples were then placed in a boiling water bath for 2 minutes to denature the PDE enzyme, and returned to ice. Samples were allowed to cool for 1.0 min after which snake venom 5′-nucleotidase (25 μl, 1 mg/ml; Sigma) was added. The tubes were vortexed and incubated in a water bath at 30° C. for 10 minutes, to attain conversion of [3H]-5′-AMP to [3H]-adenosine, and then placed on ice. Dowex ion exchange resin (Sigma) prepared as a 1:1 Dowex:water stock was thoroughly re-suspended and diluted 2:1 with ethanol. The resulting Dowex suspension (0.4 ml) was added to each tube. Tubes were vortexed to mix and then incubated on ice for at least 15 minutes before a final vortex. The Dowex resin was pelleted by centrifugation at 13,000 g at 4° C. for 3 minutes and 150 μl of the supernatant was removed to an Eppendorf tube containing 1 ml of ScintiSafe3 scintillation fluid (Fisher). Tubes were vortexed thoroughly to mix and the recovered [3H]-adenosine was quantified by measuring counts over 1 minute in a scintillation counter.

[1] = target: T2, full length human PDE4B2 short isoform (Homo sapiens, UniProt Q07343); assay: PDE4 radio-assay, PDE4B2 short form (Experiment 1); assay type: biochemical; details: method of Experiment 1; FIG. 4
T2 construct: the full length human PDE4B2 short isoform; made in house; cytosol fraction of the lysate
Method: as §1, §2, §3, §4, §5
PDE assays were performed using a final concentration of 10 mM Tris/5 mM MgCl2 and 1 μM [3H]-cAMP (Perkin Elmer) plus PDE4D5 cell lysate cytosol fraction, containing over-expressed PDE4D5, with and without test compound. Incubations were performed at 30° C. for 5 minutes. […] Tubes were vortexed thoroughly to mix and the recovered [3H]-adenosine was quantified by measuring counts over 1 minute in a scintillation counter.

MDCK cells = assay: Reduction of intracellular cAMP levels in forskolin stimulated MDCK cells (Experiment 2); assay type: cell-based, canine; details: 10 μM compound for 10 min prior to forskolin (10 μM) for 2 min; FIG. 6
Method: HEK 293 and MDCK cells (Public Health England, Cell Culture Collections) were maintained in DMEM supplemented with 10% (v/v) fetal bovine serum (Seralab), 2 mM L-glutamine, 1,000 U penicillin and 1,000 μg streptomycin (Life Technologies); termed complete media. Clonal HEK 293 cell lines were maintained in complete media supplemented with 0.6 mg/mL G418 (Enzo Life Sciences).
HEK 293 or MDCK cells were seeded at 100,000 cells per well, and left to adhere overnight. The cells were then treated with the compound indicated (10 μM) for 10 minutes, prior to stimulation with forskolin (10 μM, Sigma) for 2 minutes. Media was aspirated, and hydrochloric acid (0.1M) was added to lyse the cells. The cAMP assay (Enzo Life Sciences) was performed according to the manufacturers instructions.

T2 sequence (Q07343 1-564 isoform Q07343-2): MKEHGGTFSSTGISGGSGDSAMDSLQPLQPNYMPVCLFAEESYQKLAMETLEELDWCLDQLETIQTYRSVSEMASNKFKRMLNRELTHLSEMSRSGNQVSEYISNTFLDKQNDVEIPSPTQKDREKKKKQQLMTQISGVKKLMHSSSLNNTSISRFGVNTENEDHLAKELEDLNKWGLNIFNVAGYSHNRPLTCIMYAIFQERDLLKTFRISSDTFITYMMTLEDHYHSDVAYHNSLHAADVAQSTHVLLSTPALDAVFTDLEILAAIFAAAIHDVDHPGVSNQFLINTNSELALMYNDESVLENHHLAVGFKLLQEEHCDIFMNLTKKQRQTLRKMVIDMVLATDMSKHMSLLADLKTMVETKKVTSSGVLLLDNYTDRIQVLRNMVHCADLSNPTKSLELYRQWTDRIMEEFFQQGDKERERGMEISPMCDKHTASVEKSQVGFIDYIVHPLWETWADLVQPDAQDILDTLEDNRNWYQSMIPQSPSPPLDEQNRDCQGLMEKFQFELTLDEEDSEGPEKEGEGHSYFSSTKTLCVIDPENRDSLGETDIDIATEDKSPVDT
T1 sequence (Q08499 1-745 isoform Q08499-6): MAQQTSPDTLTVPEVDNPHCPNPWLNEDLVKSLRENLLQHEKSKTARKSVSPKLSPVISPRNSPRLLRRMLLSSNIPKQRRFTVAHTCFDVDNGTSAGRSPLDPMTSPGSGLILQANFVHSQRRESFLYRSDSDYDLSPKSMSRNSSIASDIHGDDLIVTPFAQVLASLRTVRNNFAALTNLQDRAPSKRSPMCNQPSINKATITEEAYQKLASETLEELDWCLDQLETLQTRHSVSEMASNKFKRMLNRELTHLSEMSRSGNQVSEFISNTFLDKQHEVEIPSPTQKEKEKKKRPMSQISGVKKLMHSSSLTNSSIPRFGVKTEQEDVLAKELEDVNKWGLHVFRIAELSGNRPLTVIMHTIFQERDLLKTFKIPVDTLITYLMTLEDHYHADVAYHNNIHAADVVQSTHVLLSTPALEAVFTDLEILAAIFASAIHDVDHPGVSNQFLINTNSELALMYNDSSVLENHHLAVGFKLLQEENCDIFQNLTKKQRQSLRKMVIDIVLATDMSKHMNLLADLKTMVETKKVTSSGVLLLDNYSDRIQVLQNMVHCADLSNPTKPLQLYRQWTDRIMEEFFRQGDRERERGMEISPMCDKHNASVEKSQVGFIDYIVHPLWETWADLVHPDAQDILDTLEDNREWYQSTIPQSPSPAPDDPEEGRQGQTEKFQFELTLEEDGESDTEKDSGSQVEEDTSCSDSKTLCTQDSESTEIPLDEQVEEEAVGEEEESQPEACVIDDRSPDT

Row | Structure (SMILES) | activation at 1 µM (full-length human PDE4D5) [%] | activation at 3 µM (full-length human PDE4D5) [%] | activation at 10 µM (full-length human PDE4D5) [%] | activation at 30 µM (full-length human PDE4D5) [%] | activation at 50 µM (full-length human PDE4D5) [%] | activation of PDE4B2, a short form of PDE4 (in words) [1] | intracellular cAMP levels in MDCK cells (in words) (MDCK cells)
1 | CCc1nc(-c2ccc(Cl)c(F)c2)nn1CC(=O)NCc1cccc(Cl)c1 [Example E, N-(3-Chlorobenzyl)-2-[3-(4-chloro-3-fluorophenyl)-5-ethyl-1H-1,2,4-triazol-1-yl]acetamide] |  |  |  |  | 71.1 |  | 
2 | CCc1nc(-c2ccc(Cl)c(F)c2)nn1CC(=O)NCc1cccc(C#N)c1 [Example F, N-(3-Cyanobenzyl)-2-[3-(4-chloro-3-fluorophenyl)-5-ethyl-1H-1,2,4-triazol-1-yl]acetamide] |  |  |  |  | 107 |  | 
3 | Cc1nc(-c2ccc(Cl)cc2)nn1CC(=O)NCc1ccccc1 [Example C, N-Benzyl-2-[3-(4-chlorophenyl)-5-methyl-1H-1,2,4-triazol-1-yl]acetamide] |  |  |  |  | 119 |  | reduction in intracellular cAMP levels
4 | CCc1nc(-c2ccc(Cl)c(F)c2)nn1CC(=O)NCc1ccccc1F [Example J, N-(2-Fluorobenzyl)-2-[3-(4-chloro-3-fluorophenyl)-5-ethyl-1H-1,2,4-triazol-1-yl]acetamide] |  |  |  |  | 82.2 |  | 
5 | CCc1nc(-c2ccc(Cl)c(F)c2)nn1CC(=O)NCc1cccc(OC)c1 [Example H, N-(3-Methoxybenzyl)-2-[3-(4-chloro-3-fluorophenyl)-5-ethyl-1H-1,2,4-triazol-1-yl]acetamide] |  |  |  |  | 136 |  | 

The next lines start with results.

Row | activation at 1 µM (full-length human PDE4D5) [%] | activation at 3 µM (full-length human PDE4D5) [%] | activation at 10 µM (full-length human PDE4D5) [%] | activation at 30 µM (full-length human PDE4D5) [%] | activation at 50 µM (full-length human PDE4D5) [%] | activation of PDE4B2, a short form of PDE4 (in words) [1] | Structure (SMILES) | intracellular cAMP levels in MDCK cells (in words) (MDCK cells)
6 | 52.6 | 30.6 | 51.6 | 126 | 196 | lack of activation | COCc1nc(-c2ccc(OC(F)(F)F)cc2)nn1CC(=O)NCc1cccc(F)c1 [Example D, N-(3-Fluorobenzyl)-2-{3-[4-(trifluoromethoxy)phenyl]-5-methoxymethyl-1H-1,2,4-triazol-1-yl}acetamide] | reduction in intracellular cAMP levels
7 | 7.2 | 0.4 | 21.9 | 64.6 | 114 | lack of activation | COCc1nc(-c2ccc(Cl)cc2)nn1CC(=O)NCc1ccccc1 [Example B, N-Benzyl-2-[3-(4-chlorophenyl)-5-methoxymethyl-1H-1,2,4-triazol-1-yl]acetamide] | 
8 |  |  |  |  | 92.1 |  | CCc1nc(-c2ccc(Cl)c(F)c2)nn1CC(=O)NCc1cccc(OC(F)(F)F)c1 [Example I, N-[3-(Trifluoromethoxy)benzyl]-2-[3-(4-chloro-3-fluorophenyl)-5-ethyl-1H-1,2,4-triazol-1-yl]acetamide] | 
9 | 26 | 42.4 | 79.8 | 214 | 251 | lack of activation | CCc1nc(-c2ccc(Cl)c(F)c2)nn1CC(=O)NCc1ccc(OC)c(OC)c1 [Example L, N-(3,4-Dimethoxybenzyl)-2-[3-(4-chloro-3-fluorophenyl)-5-ethyl-1H-1,2,4-triazol-1-yl]acetamide] | 
10 |  |  |  |  | 80.5 |  | CCc1nc(-c2ccc(Cl)c(F)c2)nn1CC(=O)NCc1ccc(F)cc1 [Example K, N-(4-Fluorobenzyl)-2-[3-(4-chloro-3-fluorophenyl)-5-ethyl-1H-1,2,4-triazol-1-yl]acetamide] | 
11 |  |  |  |  | 171 |  | CCc1nc(-c2ccc(Cl)c(F)c2)nn1CC(=O)NCc1cccc(C(F)(F)F)c1 [Example G, N-[3-(Trifluoromethyl)benzyl]-2-[3-(4-chloro-3-fluorophenyl)-5-ethyl-1H-1,2,4-triazol-1-yl]acetamide] | 

Reference: patent publication US10793531B2, “Triazole derivatives and their use as PDE4 activators” (MIRONID LIMITED, priority 2015, dated 2020)
